We go through 18 molecules from ChEMBL document CHEMBL1137252, “Substituted 5-benzyl-2-phenyl-5H-imidazo[4,5-c]pyridines: a new class of pestivirus inhibitors” (Bioorg Med Chem Lett, 2006).

Active and inactive are the calls of the source. How the calls were made is not given here.

The test system of one data set is Hepatitis C virus. Put plainly: Antiviral activity against HCV 1a. The format is functional, organism-based. The note with it: Hepacivirus hominis; subtype 1a.
Data set [1] in a line: Cytotoxicity against MDBK cells. The data set is classed as cell-based, Bos taurus. The note with it: cattle.
The nature of data set [2]: Selectivity index, CC50 for MDBK cells/EC50 for BVDV NADL. The format is functional.
Data set [3] deals with Bovine viral diarrhea virus 1. Put plainly: Antiviral activity against BVDV NADL in MDBK cells. To be noted: Bovine viral diarrhea virus isolates and strains. The format is functional, organism-based.

Turning to `N#Cc1cccc(Cn2ccc3nc(-c4ccccc4)nc-3c2)c1`, the result with Hepatitis C virus was inactive. Moreover, the CC50 (commonly the concentration giving 50% cytotoxicity) in data set [1] is > 100 µM. Moreover, the “Ratio CC50/EC50” value in data set [2] is on record as >25. Moreover, the EC50 – broadly, the concentration that produces a half-maximal response – in data set [3] is 4 µM.
The matching figures for `c1ccc(Cn2ccc3nc(-c4ccccc4)nc-3c2)cc1`: “inactive”, > 100 µM, >400 and 0.25 µM.
As to `FC(F)(F)Oc1ccc(Cn2ccc3nc(-c4ccccc4)nc-3c2)cc1`, the result in the data set with Hepatitis C virus was inactive. Further, in data set [1], it took 66 µM to reach half-maximal cytotoxicity (CC50). The “Ratio CC50/EC50” value in data set [2] is given as 244. The half-maximal effective concentration (EC50) in data set [3] amounted to 0.27 µM.
The matching figures for `Clc1cccc(Cn2ccc3nc(-c4ccccc4)nc-3c2)c1`: “inactive”, > 100 µM, >476 and 0.21 µM.
The matching figures for `Clc1ccc(Cn2ccc3nc(-c4ccccc4)nc-3c2)s1`: “inactive”, > 100 µM, >476 and 0.21 µM.
The matching figures for `CC(C)(C)c1ccc(Cn2ccc3nc(-c4ccccc4)nc-3c2)cc1`: “inactive”, 22 µM, 45 and 0.49 µM.
Consider `CC(C)N(CCn1ccc2nc(-c3ccccc3)nc-2c1)C(C)C`, for which, in the data set with Hepatitis C virus, the result was inactive. Also, the CC50 in data set [1] is > 100 µM. In data set [2], the “Ratio CC50/EC50” value is >45. Also, the midpoint of the response in data set [3], the EC50, lay at 2.2 µM.
The matching figures for `Fc1cccc(F)c1-c1nc2ccn(CCc3ccccc3)cc-2n1`: “inactive”, > 100 µM, >2 and 57 µM.
The matching figures for `Fc1ccc(Cn2ccc3nc(-c4ccccc4)nc-3c2)cc1`: “inactive”, > 100 µM, >833 and 0.12 µM.
The matching figures for `Fc1cccc(F)c1Cn1ccc2nc(-c3ccccc3)nc-2c1`: “inactive”, > 100 µM, >435 and 0.23 µM.
Consider `c1ccc(-c2nc3cc[nH]cc-3n2)cc1`, for which the outcome in the data set with Hepatitis C virus was inactive. In data set [1], the CC50 is > 100 µM. Further, in data set [2], the “Ratio CC50/EC50” value is >10. Also, the EC50 in data set [3] was 10 µM.
The matching figures for `CC(C)CCn1ccc2nc(-c3ccccc3)nc-2c1`: “inactive”, > 100 µM, >26 and 3.8 µM.
In the case of `Fc1ccccc1Cn1ccc2nc(-c3ccccc3)nc-2c1`, the outcome in the data set on Hepatitis C virus was inactive. Further, in data set [1], the CC50 is > 100 µM. Besides, the “Ratio CC50/EC50” value in data set [2] is >1000. This molecule also showed an EC50 in data set [3] of 0.1 µM.
The matching figures for `CCn1ccc2nc(-c3ccccc3)nc-2c1`: “inactive”, > 100 µM, >7 and 15 µM.
The matching figures for `Brc1ccccc1Cn1ccc2nc(-c3ccccc3)nc-2c1`: “inactive”, > 100 µM, >357 and 0.28 µM.
Regarding `FC(F)(F)c1cccc(Cn2ccc3nc(-c4ccccc4)nc-3c2)c1`, in the data set with Hepatitis C virus, the outcome was inactive. This molecule showed a CC50 in data set [1] of 98 µM. Also, in data set [2], the “Ratio CC50/EC50” value was 408. A half-maximal effect in data set [3] (EC50) was put at 0.24 µM.
The matching figures for `C(=C\c1ccccc1)/Cn1ccc2nc(-c3ccccc3)nc-2c1`: “inactive”, 78 µM, 459 and 0.17 µM.
The matching figures for `CCC(CC)Cn1ccc2nc(-c3ccccc3)nc-2c1`: “inactive”, > 100 µM, >52 and 1.9 µM.
